The target of experiment [1] is FLT3 (Homo sapiens, UniProt P36888). Nature of the experiment: KINOMEscan competition binding. On the procedure:
(§1) KINOMEscan™ is based on a competition binding assay that quantitatively measures the ability of a compound to compete with an immobilized, active-site directed ligand (Fabian et al. (2005) Nat. Biotechnol. 23, 329; Karaman et al. (2008) Nat. Biotechnol. 26, 127). The compound was screened at 10 μM, and results for primary screen binding interactions are reported as ‘% Ctrl’, where lower numbers indicate stronger hits. The results for kinases targets with a % Ctrl less than 30 can be seen in Table 2.
FLT3 is a receptor tyrosine kinase; its activating mutations are found in 30% human acute myeloid leukemia (AML)^5.

Experiment [2] concerns the target T1, FLT3(R834Q) (Homo sapiens, UniProt P36888, R834Q).
T1 construct: purchased KINOMEscan (screening service)
Nature of the experiment: KINOMEscan competition binding. The conditions noted are these: read-out: Percent Control. As to the method: as §1

For experiment [3], the target named is MAP4K5 (Homo sapiens, UniProt Q9Y4K4). The experiment in a line: KINOMEscan competition binding. The settings on record: read-out: Percent Control. On the procedure:
as §1

Experiment [4] has as its target T2, TAOK2 (Homo sapiens, UniProt Q9UL54).
T2 construct: purchased KINOMEscan (screening service)
Nature of the experiment: KINOMEscan competition binding. The settings on record: read-out: Percent Control. As to the method: as §1

Experiment [5] has as its target T3, BaF3-EML4-ALK (Homo sapiens, UniProt Q9UM73).
T3 construct: fused on or other part: Q9HC35 (Echinoderm microtubule-associated protein-like 4)
Nature of the experiment: Antiproliferative activity, kinase-dependent Ba/F3 cells (MTT/MTS). Type of experiment: cell-based, murine. The conditions noted are these: 48 hours, cell viability, read-out: EML4-ALK IC50. The procedure, abridged: (§2)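 Murine Ba/F3 cells transformed with the indicated TEL- or EML4-fusion kinases, seeded at 20,000 cells/well in RPMI/10% FCS. Viability by MTT/MTS; IC50 as concentration reducing viability to 50% of DMSO vehicle control.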

Experiment [6] deals with T4, BaF3-TEL-HCK (Homo sapiens, UniProt P08631).
T4 construct: fused on or other part: P41212 (Transcription factor ETV6)
Described as above. Type of experiment: cell-based, murine. The settings on record: 48 hours, cell viability, read-out: Tel-HCK IC50. The procedure, abridged:
as §2

For experiment [7], the target named is T5, BaF3-TEL-INSR (Homo sapiens, UniProt P06213).
T5 construct: fused on or other part: P41212 (Transcription factor ETV6)
Described as above. The class given is cell-based, murine. The conditions noted are these: 48 hours, cell viability, read-out: Tel-INSR IC50. The procedure, abridged: as §2

Experiment [8] deals with T6, BaF3-TEL-LYN (Homo sapiens, UniProt P07948).
T6 construct: fused on or other part: P41212 (Transcription factor ETV6)
Described as above. Type of experiment: cell-based, murine. The conditions noted are these: 48 hours, cell viability, read-out: tel-LYN IC50. The procedure, abridged: as §2

Experiment [9] concerns the target T7, BaF3-TEL-TIE1 (Homo sapiens, UniProt P35590).
T7 construct: fused on or other part: P41212 (Transcription factor ETV6)
The description is as above. Type of experiment: cell-based, murine. The conditions noted are these: 48 hours, cell viability, read-out: tel-TIE1 IC50. The procedure, abridged:
as §2

In experiment [10] the test system is KU812 cells. The experiment in a line: Human leukemia cell proliferation (CellTiter Glo). Type of experiment: cell-based. The settings on record: compared to Imatinib and Ponatinib; FIG. 1. On the procedure:
Comparison of 50% inhibition concentration (IC50) of IA-9, imatinib and Ponatinib in KU812 leukemia cells.
IA-9 is a strong kinase inhibitor among the compounds of the invention. The activity of IA-9 to inhibit human leukemia cell proliferation was tested using CellTiter Glo Assay (Promega).
In general terms: ATP-based viability assays read luminescence as a measure of living cells.

In experiment [11] the test system is CML mice. Nature of the experiment: Mouse CML model, Kaplan-Meier survival. The class given is in vivo. The conditions noted are these: 10 mg/kg IA-9 by oral gavage twice a day vs vehicle and 50 mg/kg imatinib; FIG. 2. On the procedure: The number (n) of mice treated in each group was indicated.
The activity of IA-9 to treat leukemia was tested in a mouse CML model as described ^4. Bone marrow cells from 5-fluorouracil (5-FU)-treated male BALB/c donor mice 5 days before were infected at a concentration of 1×10^6 cells/mL for 24 hours in a cocktail consisting of DMEM, 15% FCS, 5% WEHI-conditioned medium, 50% viral supernatant, 3 μg/mL polybrene, 2 mmol/L L-glutamine, PSA, 7 ng/mL IL-3, 12 ng/mL IL-6 and 56 ng/mL stem cell factor (SCF; R&D System). The infection was repeated once with freshly made retrovirus-containing cocktail as described above. The infected bone marrow cells were then washed once with phosphate-buffered saline and were injected into lethally irradiated (2 doses of 450 rads each dose administered 4 hours apart) syngeneic mice (female BALB/c; 6 to 8 weeks old) through the tail vein at 4×10^5 cells per mouse. Starting at […] bone marrow transplantation, the recipient mice were treated with vehicle (10% 1-methyl-2-pyrrolidinone:90% PEG-300), 50 mg/kg imatinib or 10 mg/kg IA-9 by oral gavage twice a day.

The subject of experiment [12] is Ba/F3 cells expressing FLT3-ITD oncoprotein (ITD). The experiment in a line: Proliferation of FLT3-ITD expressing Ba/F3 cells. The class given is cell-based, murine. On the procedure: (§3) A. Dose response curve of IA-9 in treating ITD cells is presented. ITD cells in the presence (ITD+) or absence of IL-3 (ITD−) were treated with 10 μM and 3-fold dilution series of IA-9. B. Dose response curve of IA-9 in treating MV-4-11 cells is shown. […].

The test system of experiment [13] is MV-4-11. Nature of the experiment: Proliferation of FLT3-ITD-driven human AML cells. The class given is cell-based. The settings on record: compared with Dasatinib; FIG. 5B. On the procedure:
as §3

T7 sequence (P35590 whole entry, change not shown, the tested form may be a part): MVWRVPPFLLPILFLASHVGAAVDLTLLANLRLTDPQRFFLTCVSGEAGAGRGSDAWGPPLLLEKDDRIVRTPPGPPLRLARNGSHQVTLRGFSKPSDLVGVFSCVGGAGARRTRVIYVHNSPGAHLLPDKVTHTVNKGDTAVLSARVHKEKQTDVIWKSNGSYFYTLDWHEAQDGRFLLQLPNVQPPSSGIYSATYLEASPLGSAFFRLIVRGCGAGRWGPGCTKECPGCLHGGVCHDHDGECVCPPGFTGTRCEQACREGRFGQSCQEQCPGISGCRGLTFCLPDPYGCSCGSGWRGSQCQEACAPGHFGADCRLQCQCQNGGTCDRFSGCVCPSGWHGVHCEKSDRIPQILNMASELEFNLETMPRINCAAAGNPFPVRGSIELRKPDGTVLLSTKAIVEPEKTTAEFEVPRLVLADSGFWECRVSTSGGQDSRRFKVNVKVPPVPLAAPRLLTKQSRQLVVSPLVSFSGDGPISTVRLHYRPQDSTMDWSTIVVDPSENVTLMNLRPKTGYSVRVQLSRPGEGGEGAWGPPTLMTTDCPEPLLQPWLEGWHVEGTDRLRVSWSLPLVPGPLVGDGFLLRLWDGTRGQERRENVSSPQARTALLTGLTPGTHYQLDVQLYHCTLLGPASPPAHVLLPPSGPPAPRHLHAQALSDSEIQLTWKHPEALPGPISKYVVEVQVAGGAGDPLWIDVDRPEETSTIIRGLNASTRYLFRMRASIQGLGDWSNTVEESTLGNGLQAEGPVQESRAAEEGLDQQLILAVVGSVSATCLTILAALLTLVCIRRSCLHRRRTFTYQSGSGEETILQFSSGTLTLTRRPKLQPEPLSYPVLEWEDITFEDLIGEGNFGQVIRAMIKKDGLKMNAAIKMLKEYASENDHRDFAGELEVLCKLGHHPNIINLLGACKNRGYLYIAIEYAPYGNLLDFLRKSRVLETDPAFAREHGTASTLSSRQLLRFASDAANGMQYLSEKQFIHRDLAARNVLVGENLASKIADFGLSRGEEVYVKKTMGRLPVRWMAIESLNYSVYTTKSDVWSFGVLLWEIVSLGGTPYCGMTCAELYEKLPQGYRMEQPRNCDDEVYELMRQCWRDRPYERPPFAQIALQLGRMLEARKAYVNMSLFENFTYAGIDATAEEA
T6 sequence (P07948 whole entry, change not shown, the tested form may be a part): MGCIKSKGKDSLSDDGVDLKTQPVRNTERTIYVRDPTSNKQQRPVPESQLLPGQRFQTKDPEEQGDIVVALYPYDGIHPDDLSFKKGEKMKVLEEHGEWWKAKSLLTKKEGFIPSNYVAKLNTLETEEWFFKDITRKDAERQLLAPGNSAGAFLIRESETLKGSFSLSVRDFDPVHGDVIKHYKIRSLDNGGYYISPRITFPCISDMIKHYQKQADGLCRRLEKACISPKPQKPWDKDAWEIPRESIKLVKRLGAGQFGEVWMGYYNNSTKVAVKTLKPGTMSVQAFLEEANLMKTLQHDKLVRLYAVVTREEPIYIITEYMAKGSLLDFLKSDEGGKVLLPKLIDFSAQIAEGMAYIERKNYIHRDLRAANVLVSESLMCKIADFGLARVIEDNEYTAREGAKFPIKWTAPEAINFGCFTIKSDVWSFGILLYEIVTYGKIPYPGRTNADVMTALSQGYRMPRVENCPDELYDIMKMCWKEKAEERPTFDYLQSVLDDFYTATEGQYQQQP
T5 sequence (P06213 whole entry, stated change not applied, the tested form may be a part): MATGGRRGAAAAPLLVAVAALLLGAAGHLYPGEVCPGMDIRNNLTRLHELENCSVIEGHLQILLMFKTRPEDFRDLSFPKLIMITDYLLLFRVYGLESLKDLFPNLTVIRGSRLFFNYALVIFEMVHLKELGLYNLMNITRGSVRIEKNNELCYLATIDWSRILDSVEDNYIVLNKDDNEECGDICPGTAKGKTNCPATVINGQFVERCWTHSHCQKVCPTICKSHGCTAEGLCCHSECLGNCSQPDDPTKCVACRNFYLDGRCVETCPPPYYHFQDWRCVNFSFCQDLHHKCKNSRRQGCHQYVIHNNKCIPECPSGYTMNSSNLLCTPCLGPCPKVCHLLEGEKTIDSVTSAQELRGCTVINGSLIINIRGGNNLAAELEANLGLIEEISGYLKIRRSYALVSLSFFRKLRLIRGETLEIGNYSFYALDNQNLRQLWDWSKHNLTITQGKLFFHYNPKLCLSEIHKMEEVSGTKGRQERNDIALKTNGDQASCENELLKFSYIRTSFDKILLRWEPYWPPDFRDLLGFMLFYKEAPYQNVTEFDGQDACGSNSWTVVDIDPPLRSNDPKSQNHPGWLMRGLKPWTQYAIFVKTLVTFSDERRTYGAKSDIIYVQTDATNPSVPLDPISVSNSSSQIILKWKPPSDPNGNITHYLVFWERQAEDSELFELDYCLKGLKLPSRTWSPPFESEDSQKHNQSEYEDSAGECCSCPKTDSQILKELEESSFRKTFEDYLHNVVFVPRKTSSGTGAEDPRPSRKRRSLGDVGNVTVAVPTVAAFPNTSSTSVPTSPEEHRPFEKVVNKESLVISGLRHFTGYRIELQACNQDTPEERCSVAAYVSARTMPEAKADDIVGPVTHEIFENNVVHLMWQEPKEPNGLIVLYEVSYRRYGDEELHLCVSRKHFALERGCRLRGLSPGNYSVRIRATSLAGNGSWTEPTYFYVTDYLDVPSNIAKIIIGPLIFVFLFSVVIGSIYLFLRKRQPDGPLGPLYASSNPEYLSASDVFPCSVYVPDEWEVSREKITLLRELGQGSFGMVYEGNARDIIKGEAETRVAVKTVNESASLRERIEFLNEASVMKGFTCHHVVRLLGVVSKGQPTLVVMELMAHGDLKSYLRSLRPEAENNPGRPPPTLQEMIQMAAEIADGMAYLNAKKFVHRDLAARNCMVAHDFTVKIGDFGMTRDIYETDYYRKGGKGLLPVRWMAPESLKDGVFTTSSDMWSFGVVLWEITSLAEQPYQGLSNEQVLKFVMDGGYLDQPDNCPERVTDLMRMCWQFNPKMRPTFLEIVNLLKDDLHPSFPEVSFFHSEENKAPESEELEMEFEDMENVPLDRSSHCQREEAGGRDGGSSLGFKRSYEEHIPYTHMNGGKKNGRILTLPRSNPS
T4 sequence (P08631 whole entry, change not shown, the tested form may be a part): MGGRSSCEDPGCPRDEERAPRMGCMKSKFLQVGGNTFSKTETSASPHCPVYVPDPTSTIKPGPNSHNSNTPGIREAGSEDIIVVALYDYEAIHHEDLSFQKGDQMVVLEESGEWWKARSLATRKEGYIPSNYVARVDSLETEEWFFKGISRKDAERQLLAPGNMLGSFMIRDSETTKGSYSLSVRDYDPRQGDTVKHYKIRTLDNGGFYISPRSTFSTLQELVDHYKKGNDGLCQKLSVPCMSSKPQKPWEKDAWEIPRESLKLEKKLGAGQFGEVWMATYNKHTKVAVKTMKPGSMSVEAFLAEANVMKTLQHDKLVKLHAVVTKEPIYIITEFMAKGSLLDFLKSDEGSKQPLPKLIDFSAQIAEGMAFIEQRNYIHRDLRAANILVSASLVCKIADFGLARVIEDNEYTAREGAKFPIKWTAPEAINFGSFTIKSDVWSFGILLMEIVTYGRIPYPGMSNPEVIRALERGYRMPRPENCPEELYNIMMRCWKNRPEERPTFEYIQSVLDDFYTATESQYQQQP
MAP4K5, sequence (Q9Y4K4 whole entry): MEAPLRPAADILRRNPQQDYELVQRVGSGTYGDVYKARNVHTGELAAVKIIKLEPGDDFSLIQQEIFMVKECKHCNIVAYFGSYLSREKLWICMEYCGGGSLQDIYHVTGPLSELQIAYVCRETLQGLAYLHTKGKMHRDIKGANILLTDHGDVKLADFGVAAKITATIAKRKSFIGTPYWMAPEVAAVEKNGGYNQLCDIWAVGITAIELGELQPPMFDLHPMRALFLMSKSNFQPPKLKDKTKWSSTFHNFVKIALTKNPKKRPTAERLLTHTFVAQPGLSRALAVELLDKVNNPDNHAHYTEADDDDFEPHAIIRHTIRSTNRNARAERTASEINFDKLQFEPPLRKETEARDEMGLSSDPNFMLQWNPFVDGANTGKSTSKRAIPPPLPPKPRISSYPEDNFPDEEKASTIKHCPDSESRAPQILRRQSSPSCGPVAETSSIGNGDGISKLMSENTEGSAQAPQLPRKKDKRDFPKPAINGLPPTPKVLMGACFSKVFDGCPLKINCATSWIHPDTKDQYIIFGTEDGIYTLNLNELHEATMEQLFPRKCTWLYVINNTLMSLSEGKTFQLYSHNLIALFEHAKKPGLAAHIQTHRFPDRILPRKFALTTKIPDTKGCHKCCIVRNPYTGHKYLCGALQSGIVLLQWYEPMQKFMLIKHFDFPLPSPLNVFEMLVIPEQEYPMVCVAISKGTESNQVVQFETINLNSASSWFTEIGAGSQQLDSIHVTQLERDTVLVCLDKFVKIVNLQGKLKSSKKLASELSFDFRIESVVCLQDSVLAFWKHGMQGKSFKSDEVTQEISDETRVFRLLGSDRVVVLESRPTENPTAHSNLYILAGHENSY

On to `Cc1ccc(Nc2ncc3c(n2)N(C)CN(c2cc(NC(=O)c4cccc(C(F)(F)F)c4)ccc2C)C3)cn1` [IA-9, N-(4-methyl-3-(1-methyl-7-((6-methylpyridin-3-yl)amino)-1,4-dihydropyrimido[4,5-d]pyrimidin-3(2H)-yl)phenyl)-3-(trifluoromethyl)benzamide], for which the remaining binding at 10 µM was found to be 0.2% in [1] (FLT3, 10 μM, read-out: Percent Control); 20% in experiment [2]; 2.5% in experiment [3]; 15% in experiment [4]. Further, the “binding to FLT3 kinase (in words)” value in experiment [1] (KINOMEscan data) was “bind(s) FLT3 kinase strongly”. Besides, the GI50 is 1470 nM in [5]; 639 nM in experiment [6]; 869 nM in experiment [7]; 225 nM in [8]; 519 nM in experiment [9]. The “inhibition of proliferation of KU812 cells” value in [10] is “stronger ability to inhibit proliferation of KU812 cells”. Besides, the “anti-leukemia activity (Kaplan-Meier survival)” value in experiment [11] is on record as “significantly stronger anti-leukemia activity”. Further, in experiment [12] (FLT3-ITD transformed cells, IL-3 rescue), the “potential therapeutic window (ITD cells with vs without IL-3)” value worked out at 80 fold. The “inhibition of proliferation/viability of ITD cells” value in experiment [12] (absence of IL-3, FIG. 5A) is “effectively inhibits the proliferation/viability of ITD cells”. Besides, the “proliferation/survival of ITD cells on addition of IL-3” value in [12] (presence of IL-3, FIG. 5A) is given as “largely rescues the proliferation/survival of the ITD cells”. In addition, in experiment [13], the “suppression of growth of MV-4-11” value is listed as “much more effectively than did Dasatinib”.

Values taken from US10364247B2, “Preparation and use of novel protein kinase inhibitors” (Ruijin Hospital Affiliated to Shanghai Jiao Tong University …, priority 2015, dated 2019).
